# Assay results from patent publication US9918990B2, “Substituted pyrrolo[2,3-c]pyridines and pyrazolo[3,4-c]pyridines as BET protein inhibitors” (Incyte Corporation, priority 2013, dated 2018).
# Where a name gives a salt, the structure may show the parent alone.
# Legend:
# [1] = biological target: BRD4-BD1 (Homo sapiens (Human), UniProt O60885); assay: BRD4 AlphaScreen assay, BRD4-BD1; format: binding; conditions: H4Ac4 peptide, 75 min, room temperature, read-out: BRD4 BD-1 enzyme IC50
# Outline: (§1)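 AlphaScreen read after 75 min dark incubation at room temperature, inhibitors serially diluted in DMSO and added before other components. IC50 from fit of percent control activity versus log inhibitor concentration.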
# [2] = test system: C-myc; assay: KMS.12.BM C-myc ELISA assay; format: cell-based; conditions: Homo sapiens; KMS.12.BM cells, 2 hours, concentration required for 50% C-myc inhibition
# Outline: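 Human myeloma KMS.12.BM cells in RPMI/10% FBS were exposed to a compound concentration range for 2 h, then lysed with protease inhibitors. C-myc in clarified lysates was measured by ELISA. IC50 is the concentration giving 50% C-myc inhibition relative to untreated cells.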
# [3] = biological target: BRD4-BD2 (Homo sapiens (Human), UniProt O60885); assay: BRD4 AlphaScreen assay, BRD4-BD2; format: binding; conditions: H4Ac4 peptide, 75 min, room temperature, read-out: BRD4 BD-2 enzyme IC50
# Outline: as §1
# [4] = test system: KMS.12.BM cells; assay: KMS.12.BM cell viability assay (Cell Titer-GLO, ATP quantitation); format: cell-based; conditions: Homo sapiens, 72 h, 3 days, concentration required for 50% cell death, read-out: KMS cellular IC50
# Outline: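 Human myeloma KMS.12.BM cells, 5000 cells/well in RPMI with 10% FBS, were exposed to a compound concentration range for 3 days. Viability was read by Cell Titer-GLO ATP luminescence relative to untreated cells; IC50 is the concentration giving 50% cell death.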
Compound,IC50 [1],IC50 [2],IC50 [3],IC50 [4]
"Cn1cc(-c2ccc3c(c2OCC2CCC2)n(CCCC#N)c(=O)n3C)c2cc[nH]c2c1=O [Example 61, 4-[7-(Cyclobutylmethoxy)-3-methyl-6-(6-methyl-7-oxo-6,7-dihydro-1H-pyrrolo[2,3-c]pyridin-4-yl)-2-oxo-2,3-dihydro-1H-benzimidazol-1-yl]butanenitrile]",< 100 nM,≤ 1000 nM,< 100 nM,≤ 1000 nM
"Cn1cc(-c2ccc3c(c2OCC2CCC2)n(CCC#N)c(=O)n3C)c2cc[nH]c2c1=O [Example 62, 3-[7-(Cyclobutylmethoxy)-3-methyl-6-(6-methyl-7-oxo-6,7-dihydro-1H-pyrrolo[2,3-c]pyridin-4-yl)-2-oxo-2,3-dihydro-1H-benzimidazol-1-yl]propanenitrile]",< 100 nM,≤ 1000 nM,< 100 nM,≤ 1000 nM
"Cn1cc(-c2ccc3c(c2OCC2CCC2)n(Cc2ccccc2)c(=O)n3C)c2cc[nH]c2c1=O [Example 64, 3-Benzyl-4-(cyclobutylmethoxy)-1-methyl-5-(6-methyl-7-oxo-6,7-dihydro-1H-pyrrolo[2,3-c]pyridin-4-yl)-1,3-dihydro-2H-benzimidazol-2-one]",< 100 nM,≤ 1000 nM,< 100 nM,≤ 1000 nM
"CC(=O)N1CCN(CCn2c(=O)n(C)c3ccc(-c4cn(C)c(=O)c5[nH]ccc45)c(OCC4CCC4)c32)CC1 [Example 66, 3-(2-(4-Acetylpiperazin-1-yl)ethyl)-4-(cyclobutylmethoxy)-1-methyl-5-(6-methyl-7-oxo-6,7-dihydro-1H-pyrrolo[2,3-c]pyridin-4-yl)-1H-benzo[d]imidazol-2(3H)-one]",< 100 nM,≤ 1000 nM,< 100 nM,≤ 1000 nM
"CN1CCN(CCn2c(=O)n(C)c3ccc(-c4cn(C)c(=O)c5[nH]ccc45)c(OCC4CCC4)c32)CC1 [Example 68, 4-(Cyclobutylmethoxy)-1-methyl-5-(6-methyl-7-oxo-6,7-dihydro-1H-pyrrolo[2,3-c]pyridin-4-yl)-3-[2-(4-methylpiperazin-1-yl)ethyl]-1,3-dihydro-2H-benzimidazol-2-one]",< 100 nM,≤ 1000 nM,< 100 nM,≤ 1000 nM
"Cn1cc(-c2ccc3c([nH]c(=O)n3CCN3CCOCC3)c2Oc2ccccc2)c2cc[nH]c2c1=O [Example 69, 5-(6-Methyl-7-oxo-6,7-dihydro-1H-pyrrolo[2,3-c]pyridin-4-yl)-1-(2-morpholin-4-ylethyl)-4-phenoxy-1,3-dihydro-2H-benzimidazol-2-one trifluoroacetate]",< 100 nM,≤ 1000 nM,< 100 nM,≤ 1000 nM
"C[C@@H]1CN(CCn2c(=O)[nH]c3c(Oc4ccccc4)c(-c4cn(C)c(=O)c5[nH]ccc45)ccc32)C[C@H](C)O1 [Example 70, 1-{2-[(2R,6S)-2,6-Dimethylmorpholin-4-yl]ethyl}-5-(6-methyl-7-oxo-6,7-dihydro-1H-pyrrolo[2,3-c]pyridin-4-yl)-4-phenoxy-1,3-dihydro-2H-benzimidazol-2-one trifluoroacetate]",< 100 nM,≤ 1000 nM,< 100 nM,≤ 1000 nM
"Cn1cc(-c2ccc3c([nH]c(=O)n3C)c2OCC2CC2)c2cc[nH]c2c1=O [Example 74, 4-(Cyclopropylmethoxy)-1-methyl-5-(6-methyl-7-oxo-6,7-dihydro-1H-pyrrolo[2,3-c]pyridin-4-yl)-1,3-dihydro-2H-benzimidazol-2-one]",< 100 nM,≤ 1000 nM,< 100 nM,≤ 1000 nM
"Cn1cc(-c2ccc3ncc(=O)[nH]c3c2Oc2ccc(F)cc2F)c2cn[nH]c2c1=O [Example 75, 8-(2,4-Difluorophenoxy)-7-(6-methyl-7-oxo-6,7-dihydro-1H-pyrazolo[3,4-c]pyridin-4-yl)quinoxalin-2(1H)-one]",< 100 nM,≤ 1000 nM,< 100 nM,≤ 1000 nM
"Cn1cc(-c2ccc3c(cnn3C)c2OCC2CC2)c2cc[nH]c2c1=O [Example 76, 4-[4-(Cyclopropylmethoxy)-1-methyl-1H-indazol-5-yl]-6-methyl-1,6-dihydro-7H-pyrrolo[2,3-c]pyridin-7-one]",< 100 nM,≤ 1000 nM,< 100 nM,≤ 1000 nM
"Cn1cc(-c2ccc3c(cnn3C)c2OCC2CC2)c2cn[nH]c2c1=O [Example 77, 4-[4-(Cyclopropylmethoxy)-1-methyl-1H-indazol-5-yl]-6-methyl-1,6-dihydro-7H-pyrazolo[3,4-c]pyridin-7-one]",< 100 nM,≤ 1000 nM,< 100 nM,≤ 1000 nM
"CC(O)c1cc(-c2cn(C)c(=O)c3[nH]ncc23)c(Oc2ccc(F)cc2F)c2ncn(C)c12 (centres unmarked) [Example 78, 4-[4-(2,4-Difluorophenoxy)-7-(1-hydroxyethyl)-1-methyl-1H-benzimidazol-5-yl]-6-methyl-1,6-dihydro-7H-pyrazolo[3,4-c]pyridin-7-one]",< 100 nM,≤ 1000 nM,< 100 nM,≤ 1000 nM
"Cn1cc(-c2ccc3c([nH]c(=O)n3C)c2Oc2ccc(Cl)cc2)c2cc[nH]c2c1=O [Example 86, 4-(4-Chlorophenoxy)-1-methyl-5-(6-methyl-7-oxo-6,7-dihydro-1H-pyrrolo[2,3-c]pyridin-4-yl)-1,3-dihydro-2H-benzimidazol-2-one]",< 100 nM,≤ 1000 nM,< 100 nM,≤ 1000 nM
"Cn1cc(-c2ccc3c([nH]c(=O)n3C)c2Oc2cccc(Cl)c2)c2cc[nH]c2c1=O [Example 87, 4-(3-Chlorophenoxy)-1-methyl-5-(6-methyl-7-oxo-6,7-dihydro-1H-pyrrolo[2,3-c]pyridin-4-yl)-1,3-dihydro-2H-benzimidazol-2-one]",< 100 nM,≤ 1000 nM,< 100 nM,≤ 1000 nM
"Cn1cc(-c2ccc3c([nH]c(=O)n3C)c2OCC2CCCCC2)c2cc[nH]c2c1=O [Example 88, 4-(Cyclohexylmethoxy)-1-methyl-5-(6-methyl-7-oxo-6,7-dihydro-1H-pyrrolo[2,3-c]pyridin-4-yl)-1,3-dihydro-2H-benzimidazol-2-one]",< 100 nM,≤ 1000 nM,< 100 nM,≤ 1000 nM
"Cn1cc(-c2ccc3c([nH]c(=O)n3C)c2OC2CCC2)c2cc[nH]c2c1=O [Example 89, 4-(Cyclobutyloxy)-1-methyl-5-(6-methyl-7-oxo-6,7-dihydro-1H-pyrrolo[2,3-c]pyridin-4-yl)-1,3-dihydro-2H-benzimidazol-2-one]",< 100 nM,≤ 1000 nM,< 100 nM,≤ 1000 nM
"Cn1cc(-c2ccc3c([nH]c(=O)n3C)c2OC2CCCCC2)c2cc[nH]c2c1=O [Example 90, 4-(Cyclohexyloxy)-1-methyl-5-(6-methyl-7-oxo-6,7-dihydro-1H-pyrrolo[2,3-c]pyridin-4-yl)-1,3-dihydro-2H-benzimidazol-2-one]",< 100 nM,≤ 1000 nM,< 100 nM,≤ 1000 nM
"Cn1cc(-c2ccc3c([nH]c(=O)n3C)c2OC2CCCOC2)c2cc[nH]c2c1=O (centres unmarked) [Example 91, 1-Methyl-5-(6-methyl-7-oxo-6,7-dihydro-1H-pyrrolo[2,3-c]pyridin-4-yl)-4-(tetrahydro-2H-pyran-3-yloxy)-1,3-dihydro-2H-benzimidazol-2-one]",< 100 nM,≤ 1000 nM,< 100 nM,≤ 1000 nM
"Cn1cc(-c2ccc3c([nH]c(=O)n3C)c2OCC2CCCC2)c2cc[nH]c2c1=O [Example 92, 4-(Cyclopentylmethoxy)-1-methyl-5-(6-methyl-7-oxo-6,7-dihydro-1H-pyrrolo[2,3-c]pyridin-4-yl)-1,3-dihydro-2H-benzimidazol-2-one]",< 100 nM,≤ 1000 nM,< 100 nM,≤ 1000 nM
"Cn1cc(-c2ccc3c([nH]c(=O)n3C)c2OC2CCCC2)c2cc[nH]c2c1=O [Example 93, 4-(Cyclopentyloxy)-1-methyl-5-(6-methyl-7-oxo-6,7-dihydro-1H-pyrrolo[2,3-c]pyridin-4-yl)-1,3-dihydro-2H-benzimidazol-2-one]",< 100 nM,≤ 1000 nM,< 100 nM,≤ 1000 nM
"Cn1cc(-c2ccc3c(c2Oc2ccccc2)NC(=O)CO3)c2cc[nH]c2c1=O [Example 94, 6-(6-Methyl-7-oxo-6,7-dihydro-1H-pyrrolo[2,3-c]pyridin-4-yl)-5-phenoxy-2H-1,4-benzoxazin-3(4H)-one]",< 100 nM,≤ 1000 nM,< 100 nM,≤ 1000 nM
"Cn1cc(-c2ccc3ocnc3c2Oc2ccccc2)c2cc[nH]c2c1=O [Example 96, 6-Methyl-4-(4-phenoxy-1,3-benzoxazol-5-yl)-1,6-dihydro-7H-pyrrolo[2,3-c]pyridin-7-one]",< 100 nM,≤ 1000 nM,< 100 nM,≤ 1000 nM
"Cn1cc(-c2ccc3oc(CN)nc3c2Oc2ccccc2)c2cc[nH]c2c1=O [Example 103, 4-[2-(Aminomethyl)-4-phenoxy-1,3-benzoxazol-5-yl]-6-methyl-1,6-dihydro-7H-pyrrolo[2,3-c]pyridin-7-one]",< 100 nM,≤ 1000 nM,< 100 nM,≤ 1000 nM
